Test results: patent US20040242896A1, “Azole compounds as anti-fungal agents” (priority 2001, published 2004)
Values after ≈ are worked out from the molar mass of the structure shown. Read-outs that look alike come from different tables or passages of the source.

Key:
[1] = tested on: Candida parapsilosis 22019 (QC); test: MIC determination (NCCLS M27A), Candida parapsilosis 22019 (QC); format: cell-based
Candida krusei 6258 (QC) = test: MIC determination (NCCLS M27A), Candida krusei 6258 (QC); format: cell-based
[2] = tested on: Paecilomyces variotti 22319 QC); test: MIC determination (NCCLS M38P), Paecilomyces variotti 22319 (QC); format: cell-based
Candida albicans Y-01-19 = test: MIC determination (NCCLS M27A), Candida albicans Y-01-19; format: cell-based
Candida tropicalis 750 = test: MIC determination (NCCLS M27A), Candida tropicalis 750; format: cell-based
Candida krusei 766.1 = test: MIC determination (NCCLS M27A), Candida krusei 766.1; format: cell-based
Candida glabrata 90030 = test: MIC determination (NCCLS M27A), Candida glabrata 90030; format: cell-based
Histoplasma capsulatum = test: microbe, parasite or virus in culture; format: cell-based
[3] = tested on: Cryptococcus neoformans I; test: MIC determination (NCCLS M27A), Cryptococcus neoformans I; format: cell-based
[4] = tested on: Cryptococcus neoformans M 106; test: MIC determination (NCCLS M27A), Cryptococcus neoformans M 106; format: cell-based
[5] = tested on: Aspergillus fumigatus 1008; test: MIC determination (NCCLS M38P), Aspergillus fumigatus 1008; format: cell-based
[6] = tested on: Aspergillus fumigatus Si-I; test: MIC determination (NCCLS M38P), Aspergillus fumigatus Si-I; format: cell-based
Candida albicans 1122 = test: MIC determination (NCCLS M27A), Candida albicans 1122; format: cell-based
Candida albicans1162 = test: MIC determination (NCCLS M27A), Candida albicans 1162; format: cell-based
[7] = tested on: isolates of Aspergillus species; conditions: background statement; cited from earlier work
[8] = biological target: lanosterol 14α-de-methylase; conditions: the target enzyme in the fungus, background statement; cited from earlier work
[9] = Candida albicans Y-01-19, RPMI 1640, MOPS pH 7
[10] = Candida krusei 766.1, RPMI 1640, MOPS pH 7
[11] = Cryptococcus neoformans M 106, RPMI 1640, MOPS pH 7
[12] = Aspergillus fumigatus 1008, RPMI 1640, MOPS pH 7
[13] = Aspergillus fumigatus Si-I, RPMI 1640, MOPS pH 7
[14] = Candida albicans1162, RPMI 1640, MOPS pH 7
[15] = RPMI 1640, MOPS pH 7, read-out: MIC
[16] = Pichia kudriavzevii, RPMI 1640, MOPS pH 7, read-out: MIC
[17] = Nakaseomyces glabratus, RPMI 1640, MOPS pH 7, read-out: MIC

Row | Compound | MIC ([1]; RPMI 1640, MOPS pH 7) | MIC (Candida krusei 6258 (QC); RPMI 1640, MOPS pH 7) | MIC ([2]; RPMI 1640, MOPS pH 7) | MIC (Candida albicans Y-01-19; [9]) | MIC (Candida tropicalis 750; RPMI 1640, MOPS pH 7) | MIC (Candida krusei 766.1; [10]) | MIC (Candida glabrata 90030; RPMI 1640, MOPS pH 7) | MIC (Histoplasma capsulatum; RPMI 1640, MOPS pH 7) | MIC ([3]; RPMI 1640, MOPS pH 7) | MIC [4, 11] | MIC [5, 12] | MIC [6, 13] | MIC (Candida albicans 1122; RPMI 1640, MOPS pH 7) | MIC (Candida albicans1162; [14]) | MIC [1, 15] | MIC (Candida krusei 6258 (QC); [16]) | MIC [2, 15] | MIC (Candida albicans 1122; [15]) | MIC (Candida tropicalis 750; [15]) | MIC (Candida glabrata 90030; [17]) | also measured
1 | C[C@@H](n1ncn(-c2ccc(OCc3ccccc3)cc2)c1=S)[C@](O)(Cn1cncn1)c1ccc(F)cc1F [Compound No. 2, 2-[(1R,2R)-2 (2,4-Difluorophenyl)-2-hydroxy-1-methyl-3-(1H-1,2,4-triazol-1-yl)propyl]-4-(4-benzyloxyphenyl)-3-(2H, 4H)-1,2,4-thiotriazolone] | 0.002 µg/mL (≈ 0.00374 µM) | 0.125 µg/mL (≈ 0.234 µM) | 0.06 µg/mL (≈ 0.112 µM) | 0.03 µg/mL (≈ 0.0561 µM) | 0.002 µg/mL (≈ 0.00374 µM) | 0.125 µg/mL (≈ 0.234 µM) | 0.125 µg/mL (≈ 0.234 µM) | 0.03 µg/mL (≈ 0.0561 µM) | 0.00025 µg/mL (≈ 0.000468 µM) | 0.00025 µg/mL (≈ 0.000468 µM) | 0.125 µg/mL (≈ 0.234 µM) | 0.016 µg/mL (≈ 0.0299 µM) | – | – | – | – | – | – | – | – | –
2 | C[C@@H](n1ncn(-c2ccc(OCc3ccc(Cl)cc3Cl)cc2)c1=S)[C@](O)(Cn1cncn1)c1ccc(F)cc1F [compound 1, 2-[(1R,2R)-2 (2,4-Difluorophenyl)-2-hydroxy-1-methyl-3-(1H-1,2,4-triazol-1-yl)propyl]-4-[4-(2,4-dichlorobenzyloxy)phenyl]-3-(2H, 4H)-1,2,4-thiotriazolone] | <0.125 µg/mL | <0.125 µg/mL | <0.125 µg/mL | ≦0.125 μg/ml | <0.125 µg/mL | 0.5 µg/mL (≈ 0.829 µM) | 32 µg/mL (≈ 53 µM) | 0.5 µg/mL (≈ 0.829 µM) | <0.03 µg/mL | <0.03 µg/mL | <0.125 µg/mL | <0.125 µg/mL | <0.125 µg/mL | ≧64 μg/ml | – | – | – | – | – | – | –
3 | OC(Cn1cncn1)(Cn1cncn1)c1ccc(F)cc1F [Fluconazole] | – | – | – | – | – | – | – | – | – | – | – | – | – | – | 2 µg/mL (≈ 6.53 µM) | 32 µg/mL (≈ 104 µM) | 2 µg/mL (≈ 6.53 µM) | 0.5 µg/mL (≈ 1.63 µM) | 0.25 µg/mL (≈ 0.816 µM) | 64 µg/mL (≈ 209 µM) | MIC (Candida albicans Y-01-19; Y0119, Candida albicans Y-01-19, RPMI 1640, MOPS pH 7, read-out: MIC): 8 µg/mL (≈ 26.1 µM); MIC (Candida albicans1162; Candida, ALBICANS1162, pH 7): > 128 µg/mL; MIC (Candida krusei 766.1; Pichia kudriavzevii, 766.1, pH 7): 128 µg/mL (≈ 418 µM); MIC (Histoplasma capsulatum; pH 7): 2 µg/mL (≈ 6.53 µM); MIC [3, 15]: 0.5 µg/mL (≈ 1.63 µM); MIC ([4]; M106, Cryptococcus neoformans M 106, RPMI 1640, MOPS pH 7, read-out: MIC): 2 µg/mL (≈ 6.53 µM); MIC ([5]; Aspergillus fumigatus, 1008, pH 7): > 128 µg/mL; MIC ([6]; Aspergillus fumigatus, pH 7): > 128 µg/mL; minimum inhibitory concentration (MIC) values [7]: 400 µg/mL (≈ 1310 µM); IC50 [8]: 4.8 µM
4 | CCC(C)n1ncn(-c2ccc(N3CCN(c4ccc(OCC5COC(Cn6cncn6)(c6ccc(Cl)cc6Cl)O5)cc4)CC3)cc2)c1=O (stereo not shown) [Itraconazole] | – | – | – | – | – | – | – | – | – | – | – | – | – | – | 0.06 µg/mL (≈ 0.085 µM) | 0.5 µg/mL (≈ 0.709 µM) | 0.03 µg/mL (≈ 0.0425 µM) | 0.03 µg/mL (≈ 0.0425 µM) | 0.03 µg/mL (≈ 0.0425 µM) | 2 µg/mL (≈ 2.83 µM) | MIC (Candida albicans Y-01-19; Candida albicans, Y0119, pH 7): 0.125 µg/mL (≈ 0.177 µM); MIC (Candida albicans1162; Candida albicans1162, RPMI 1640, MOPS pH 7, read-out: MIC): 32 µg/mL (≈ 45.3 µM); MIC (Candida krusei 766.1; Pichia kudriavzevii, Candida krusei 766.1, RPMI 1640, MOPS pH 7, read-out: MIC): 0.25 µg/mL (≈ 0.354 µM); MIC (Histoplasma capsulatum; pH 7): 0.25 µg/mL (≈ 0.354 µM); MIC [3, 15]: 0.016 µg/mL (≈ 0.0227 µM); MIC ([4]; Cryptococcus neoformans, M106, pH 7): 0.125 µg/mL (≈ 0.177 µM); MIC ([5]; Aspergillus fumigatus 1008, RPMI 1640, MOPS pH 7, read-out: MIC): 0.25 µg/mL (≈ 0.354 µM); MIC ([6]; Aspergillus fumigatus Si-I, RPMI 1640, MOPS pH 7, read-out: MIC): 0.25 µg/mL (≈ 0.354 µM)
5 | C[C@@H]1[C@H](O)[C@@H](C)/C=C/C=C/C=C/C=C/C=C/C=C/C=C/[C@H](O[C@@H]2O[C@H](C)[C@@H](O)[C@H](N)[C@@H]2O)C[C@@H]2O[C@](O)(C[C@@H](O)C[C@@H](O)[C@H](O)CC[C@@H](O)C[C@@H](O)CC(=O)O[C@H]1C)C[C@H](O)[C@H]2C(=O)O [Amphotericin B] | 0.25 µg/mL (≈ 0.271 µM) | 0.25 µg/mL (≈ 0.271 µM) | 0.06 µg/mL (≈ 0.0649 µM) | 0.125 µg/mL (≈ 0.135 µM) | 0.125 µg/mL (≈ 0.135 µM) | 0.25 µg/mL (≈ 0.271 µM) | 0.125 µg/mL (≈ 0.135 µM) | 0.25 µg/mL (≈ 0.271 µM) | 0.06 µg/mL (≈ 0.0649 µM) | 0.125 µg/mL (≈ 0.135 µM) | 0.125 µg/mL (≈ 0.135 µM) | 0.125 µg/mL (≈ 0.135 µM) | 0.125 µg/mL (≈ 0.135 µM) | 0.06 µg/mL (≈ 0.0649 µM) | – | – | – | – | – | – | –
